According to patent publication US20260137662A1, “CD11B AGONISTS FOR TREATMENT OF AUTOIMMUNE DISEASE” (Rush University Medical Center, priority 2022, published 2026):

Test system: NFkB pathway
Test: Gene expression in RAW 264.7 myeloid cells with NFkB inhibitor
Assay type: cell-based, murine
Settings: presence of NFkB inhibitor; LPS-treated cells, 8 hours
Experimental: FIG. 6A illustrates gene expression of PLAUR in myeloid cells treated with NFkB inhibitor BMS 345541 and then subsequently treated for 8 hours with LA 1(20 uM), LPS (12.5, 25, 50, 100, or 250 ng/ml), or LPS and LA1 co-treatment (L+L).
FIG. 6B illustrates gene expression of NLRP3 in myeloid cells treated with NFkB inhibitor BMS 345541 and then subsequently treated for 8 hours with LA 1(20 uM), LPS (12.5, 25, 50, 100, or 250 ng/ml), or LPS and LA1 co-treatment (L+L).
FIG. 6C illustrates gene expression of and IL-6 in myeloid cells treated with NFkB inhibitor BMS 345541 and then subsequently treated for 8 hours with LA 1(20 uM), LPS (12.5, 25, 50, 100, or 250 ng/ml), or LPS and LA1 co-treatment (L+L).
In order to determine potential molecular mechanisms resulting in uPAR expression, the association between uPAR/suPAR and other inflammatory cytokines and the NFkB pathway were investigated. uPAR expression levels in RAW 264.7 myeloid cells were evaluated in the absence or presence of a known NFkB inhibitor, BMS 345541.

Cc1ccc2nc(NCCN)c3ncc(C)n3c2c1 [BMS 345541]
expression levels of IL-6: reduced | expression levels of NLRP3: reduced | relative gene expression of PLAUR (uPAR): reduced relative gene expression
